Data set [1] deals with H3K9ac (the target of SIRT1, SIRT2 and SIRT6). As to the kind of experiment: Sirtuin activity assay in HDF: H3K9ac levels (Western blot).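 Further: screen looked for decreased acetylation as a sign of sirtuin activation.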 It counts as cell-based, human. As to conditions: HDF treated 24h. On the procedure:
Figure 1 (A) Schematic representation of the compound testing for sirtuin activity evaluation in HDF. Cells were treated with or without the compounds for 24h and harvested for analysis. […] (C) Western Blot analysis and (D) quantification of H4K16ac and H3K9ac levels in cells treated with Resveratrol or Shikimic acid at the indicated concentrations. H4K16 and H3K9 levels were normalized to H4 and H3 levels respectively. Student T-test, *p<0.05, **p<0.01, ***p<0.001.
HDFs were plated in 100x20 mm2 cell culture plates and after 24h, fresh cell culture medium containing the compounds was added. After 24h, cells were detached with cell scrapers, harvested, and processed for qPCR or western blot.
(§1) Protein levels were analyzed as previously described. Cells were directly lysed in 1x Laemmli Buffer (Bio-Rad, USA), incubated at 95° C and centrifuged. Supernatant was subjected to SDS-polyacrylamide gel electrophoresis, and successive steps were performed as described. The list of antibodies used is included in Supplementary Table 2.

For data set [2], the system named is UVB-irradiated human dermal fibroblasts (HDFs). As to the kind of experiment: UVB-induced senescence assay: SA-β-Gal staining. It counts as cell-based. Conditions: UVB-irradiated HDF. The protocol:
In the second approach, we established a method for inducing senescence in these cells with 2 cycles of UVB irradiation 72h apart (Figure 2A). The use of UVA to induce senescence was discarded due to its considerably longer time requirement, being unsuitable to screen 30 compounds within a reasonable period. Cells were treated with these compounds throughout the duration of the assay and cellular senescence was monitored with two markers: accumulation of SA-β-galactosidase (SA-β-Gal) activity, and the decrease in expression of HAS2 (hyaluronic acid synthase 2), a previously reported marker of skin senescence.
Figure 2 (A) Schematic representation of the protocol for senescence induction using UVB irradiation. Cells were treated -/+ the compounds from day 1 to 7 after seeding, irradiated with UVB on days 2 and 5 and harvested for analysis on day 7. […] (C) Phase-contrast (left column) and bright field (right column) microscope images of SA-β-Gal staining showing non-irradiated cells, UVB-irradiated cells non-treated and treated with Gallic acid or Shikimic acid at the indicated concentrations. (D) Percentage of SA-β-Gal positive cells and (E) Relative HAS2 mRNA levels in non-irradiated cells, UVB-irradiated cells and UVB-irradiated cells treated with Gallic acid or Shikimic acid at the indicated concentrations. Student T-test, *p<0.05, **p<0.01, ***p<0.001.
(§2) The protocol for senescence induction using UVB irradiation is described in the Supplementary Methods. SA-β-Gal staining, WST-1, sulforhodamine B (SRB) and trypan blue assays were performed as previously described. For the siRNA experiments, the protocol for senescence induction using UVB irradiation was the same as in the Supplementary Methods. Specific siRNA (Horizon discovery, UK) for SIRT1, SIRT2, SIRT6, BiP or scramble siRNA were incubated for 6 hours before each irradiation step.
Senescence induction by UVB irradiation For the non-irradiation control conditions, HDF were […]
After 24h, culture medium was removed and well plates. After 24h, culture medium was removed replaced by fresh cell culture medium containing the and replaced with fresh cell culture medium containing compounds at different concentrations. After 24h, the compounds at different concentrations. […]
cell culture medium was removed, and cells were cells/plate in fresh cell culture medium containing the irradiated at 25 mJ/cm2 of UVB light (312 nm) in a Bio- compound in 6-well plates. After 3 days, cells were […]
amount of PBS. PBS was then removed and fresh cell fresh cell culture medium containing the compound in culture medium with the compound was added to each 6-well plates. After 2 days, cells were processed well. After 3 days, cells were irradiated again under the according to the qPCR, β-Gal staining, apoptosis, cell same conditions. After 2 days, cells were processed cycle or immunofluorescence protocols. according to the qPCR, β-Gal staining, apoptosis, cell cycle or immunofluorescence protocols.

A further data set deals with HDF cells. As to the kind of experiment: SRB and Trypan blue cell viability assays. It counts as cell-based, human. Conditions: Shikimic acid 5, 10, 25 and 50 mM, 24h. The protocol: (§3) Student T-test, *p<0.05, **p<0.01, ***p<0.001.
as §2

The next data set deals with spliced-XBP1. As to the kind of experiment: Spliced XBP1 mRNA (qPCR). Type of data set: cell-based, human. Conditions: UVB-irradiated cells, SA treatment. The protocol:
Figure 5 (A) Western-blot of BiP proteins levels in UVB or non UVB irradiated cells treated with SA at the indicated concentrations in presence or absence of EX-527 1 μM. (B) Quantification of n=3 experiments as (A). The levels of BiP are normalized by the loading control (histone H3) and represented related to the conditions in UVB irradiated cells in absence of SA and EX-527. Student T-test, *p<0.05. (C) Percentage of SA-β-Gal in assays performed as in Figure 3C. (D) Levels of spliced and unspliced XBP1 mRNA monitored by qPCR analysis in cells treated in the indicated conditions in presence or absence of SA and/or EX-527. The levels were normalized by internal controls and represented in each case related to the conditions in UVB irradiated cells in absence of SA and EX-527. […]
RNA was extracted from cell pellets using the Total RNA Purification Kit (Norgen, Canada), according to the manufacturer’s protocol. Extracted RNA was quantified using a NanoDrop® ND-1000 UV-Vis Spectrophotometer (Thermo Fisher Scientific, USA) and 300 ng of RNA were retrotranscribed to cDNA using the PrimeScriptTM RT reagent kit (Takara Bio Inc., Japan). cDNA was diluted 1/10 in ultrapure water and qPCR mix was prepared by adding cDNA (12 ng), SYBR green supermix (Bio Rad, USA), forward and reverse primers (0.2μM). […] The results were analyzed with Bio-Rad CFX Manager software. […]
(In general: In qPCR the cycle at which signal appears reflects the starting amount.)

The subject of another data set is LC3-II. As to the kind of experiment: LC3-II protein levels (Western blot). Conditions: UVB-irradiated cells, SA -/+ EX-527 1 μM (reversion at SA 10mM). It counts as cell-based, human. On the procedure:
Figure 5 (A) Western-blot of BiP proteins levels in UVB or non UVB irradiated cells treated with SA at the indicated concentrations in presence or absence of EX-527 1 μM. (B) Quantification of n=3 experiments as (A). The levels of BiP are normalized by the loading control (histone H3) and represented related to the conditions in UVB irradiated cells in absence of SA and EX-527. Student T-test, *p<0.05. (C) Percentage of SA-β-Gal in assays performed as in Figure 3C. (D) Levels of spliced and unspliced XBP1 mRNA monitored by qPCR analysis in cells treated in the indicated conditions in presence or absence of SA and/or EX-527. The levels were normalized by internal controls and represented in each case related to the conditions in UVB irradiated cells in absence of SA and EX-527. Student T-test, *p<0.05, **p<0.01, ***p<0.001. (E) LC3-II protein levels in experiments like in (A). The levels of LC3-II are normalized by the loading control (tubulin) and represented related to the conditions in UVB irradiated cells in absence of SA and EX-527. Student T-test, *p<0.05. (F) Proposed Model for the effect of SA on senescence through SIRT1. Other possible unexplored connections between SA and senescence are indicated by blue broken lines.
Protein levels were analyzed as previously described. Cells were directly lysed in 1x Laemmli Buffer (Bio-Rad, USA), incubated at 95° C and centrifuged. […]
Background: Immunoblotting shows a protein as a band on a membrane.

Another data set concerns SIRT1. Briefly: SIRT1 mRNA and protein levels in HDF. As to conditions: Shikimic acid 5, 10, 25, 50 mM, 24h. It counts as cell-based, human. The protocol:
RNA was extracted from cell pellets using the Total RNA Purification Kit (Norgen, Canada), according to the manufacturer’s protocol. Extracted RNA was quantified using a NanoDrop® ND-1000 UV-Vis Spectrophotometer (Thermo Fisher Scientific, USA) and 300 ng of RNA were retrotranscribed to cDNA using the PrimeScriptTM RT reagent kit (Takara Bio Inc., Japan). cDNA was diluted 1/10 in ultrapure water and qPCR mix was prepared by adding cDNA (12 ng), SYBR green supermix (Bio Rad, USA), forward and reverse primers (0.2μM). The primers and their respective sequences are listed in Supplementary Table 1. qPCR protocol included one step at 95° C for 30 s, 40 cycles at 95° C for 10s, and 60° C for 1min. The results were analyzed with Bio-Rad CFX Manager software. BACT was used as a housekeeping gene to normalize gene expression.
as §1, §3
(1 picture or pasted object on this page, not shown here)

From publication PMC8148468, “Shikimic acid protects skin cells from UV-induced senescence through activation of the NAD+-dependent deacetylase SIRT1” (Aging (Albany NY), 2021) come the findings set out here.

On to `O=C(O)C1=C[C@@H](O)[C@@H](O)[C@H](O)C1` [Shikimic acid], for which the “effect on H3K9ac levels” value in data set [1] is recorded as “induced a similar effect on both targets”. For the same compound, the “SA-β-Gal accumulation/staining” value in data set [2] is recorded as “significant decrease in SA-β-Gal accumulation”. In addition, in data set [2] (SA-β-Gal and HAS2 markers), the “prevention of UV-induced cellular senescence” value is “prevented the development of senescence”. Further, the “cytotoxicity (SRB/trypan blue assay)” value in the data set with HDF cells is reported as “no differences in cytotoxicity”. For the same compound, the “spliced XBP1 mRNA levels” value with spliced-XBP1 was “induced a decrease in spliced-XBP1”. In the data set with LC3-II, the LC3-II protein levels result was “SA-dependent decrease in the levels of LC3-II”. In addition, the “SIRT1 gene expression and protein levels” value in the data set with SIRT1 is “did not observe any significant correlation with gene expression and protein levels”.
